Reference: US8232307B2, “Indane-amine derivatives, their preparation and use as medicaments” (Laboratorios del Dr. Esteve, S.A., priority 2007, dated 2012)
Where a name gives a salt, the structure may show the parent alone.

Target: T1, Cloned Human Serotonin Receptor, Subtype 7 (h5HT7) (Homo sapiens, UniProt P34969)
T1 construct: purchased PerkinElmer 6120512; host or cells: CHO cells (membranes coated on Basic FlashPlate SMP200)
Assay: Radioligand binding assay, [125I]LSD, h5HT7 expressed in CHO cells
Conditions: radioligand [125I]LSD 0.82 nM; for IC50: read-out: 5-HT7 IC50; for Ki: read-out: 5-HT7 Ki
Description: Radioligand binding assays were performed using the Cloned Human Serotonin Receptor, Subtype 7 (h5HT7), expressed in CHO cells, coated on Flashplate (Basic FlashPlate Cat.: SMP200) from PerkinElmer (Cat.: 6120512). The protocol assay was essentially the recommended protocol in the Technical Data Sheet by PerkinEmer Life and Analytical Sciences. The Mass membrane protein/well was typically 12 μg and the Receptor/well was about 9-10 fmoles. The Flashplate were let equilibrate at room temperature for one hour before the addition of the components of the assay mixture. The binding buffer was: 50 mM Tris-HCl, pH 7.4, containing 10 mM MgCl2, 0.5 mM EDTA and 0.5% BSA. The radioligand was [^125I]LSD at a final concentration of 0.82 nM. Nonspecific binding was determined with 50 μM of Clozapine. The assay volume was 25 μl. TopSeal-A were applied onto Flashplate microplates and they were incubated at room temperature for 240 minutes in darkness. The radioactivity were quantified by liquid scintillation spectrophotometry (Wallac 1450 Microbeta Trilux) with a count delay of 4 minutes prior to counting and a counting time of 30 seconds per well. Competition binding data were analyzed by using the LIGAND program (Munson and Rodbard, LIGAND: A versatile, computerized approach for characterization of ligand-binding systems. Anal. Biochem. 107: 220-239, 1980) and assays were performed in triplicate determinations for each point.

T1 sequence (P34969 whole entry): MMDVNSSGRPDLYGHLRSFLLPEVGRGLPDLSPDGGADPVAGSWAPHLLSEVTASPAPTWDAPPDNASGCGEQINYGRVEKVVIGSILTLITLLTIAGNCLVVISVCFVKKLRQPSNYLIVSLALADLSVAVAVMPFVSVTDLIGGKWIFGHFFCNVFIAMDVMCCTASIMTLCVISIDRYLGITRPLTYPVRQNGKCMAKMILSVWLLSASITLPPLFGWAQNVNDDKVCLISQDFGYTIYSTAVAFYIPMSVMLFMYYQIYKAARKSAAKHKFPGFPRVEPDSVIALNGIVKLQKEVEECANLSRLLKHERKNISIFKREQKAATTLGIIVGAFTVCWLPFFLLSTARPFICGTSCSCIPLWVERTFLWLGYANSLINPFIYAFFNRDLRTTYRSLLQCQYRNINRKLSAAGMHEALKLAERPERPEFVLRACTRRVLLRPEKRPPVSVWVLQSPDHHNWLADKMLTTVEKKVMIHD

SMILES	IC50 [nM]	Ki [nM]
COc1cccc(OC)c1-c1ccc2c(c1)C(N(C)C)CC2 (stereo not drawn) [Example 10, [6-(2,6-Dimethoxy-phenyl)-indan-1-yl]-dimethyl-amine]	53.5 ± 10.1	–
Cc1nn(C)c(C)c1-c1ccc2c(c1)[C@@H](N(C)C)CC2 [Example 3, (S) Dimethyl-[6-(1,3,5-trimethyl-1H-pyrazol-4-yl)-indan-1-yl]-amine]	307 ± 181	–
CNC1CCc2ccc(-c3c(OC)cccc3OC)cc21 (stereo not drawn) [Example 11, [6-(2,6-Dimethoxy-phenyl)-indan-1-yl]-methyl-amine]	195 ± 86	–
CNC1CCc2ccc(-c3c(C)nn(C)c3C)cc21 (stereo not drawn) [Example 4, Methyl-[6-(1,3,5-trimethyl-1H-pyrazol-4-yl)-indan-1-yl]-amine]	18.7	–
Cc1nn(C)c(C)c1-c1ccc2c(c1)C(N(C)C)CC2 (stereo not drawn) [Example 1, Dimethyl-[6-(1,3,5-trimethyl-1H-pyrazol-4-yl)-indan-1-yl]-amine dihydrochloride]	15.5 ± 2.9	–
Cc1nn(C)c(C)c1-c1ccc2c(c1)[C@H](N(C)C)CC2 [Example 2, (R)-Dimethyl-[6-(1,3,5-trimethyl-1H-pyrazol-4-yl)-indan-1-yl]-amine]	5.5 ± 2.7	–

Second part, the compound after the results:

IC50 [nM]	Ki [nM]	SMILES
–	75.2 ± 2	CNC1CCc2ccc(-c3c(C)cccc3C)cc21 (stereo not drawn) [Example 15, [6-(2,6-Dimethyl-phenyl)-indan-1-yl]-methyl-amine]
–	73.3 ± 9.3	CN[C@@H]1CCc2ccc(-c3c(C)nn(C)c3C)cc21 [Example 38, (R) Methyl-[6-(1,3,5-trimethyl-1H-pyrazol-4-yl)-indan-1-yl]-amine]
–	153 ± 32.4	Cc1nn(C)c(C)c1-c1ccc2c(c1)C([N+](C)(C)C)CC2 (stereo not drawn) [Example 36, Trimethyl-[6-(1,3,5-trimethyl-1H-pyrazol-4-yl)-indan-1-yl]-ammonium iodide]
–	25.8 ± 2.7	COc1cccc(Cl)c1-c1ccc2c(c1)C(N(C)C)CC2 (stereo not drawn) [Example 20, [6-(2-Chloro-6-methoxy-phenyl)-indan-1-yl]-dimethyl-amine]
68.4 ± 1.1	–	COc1ccccc1-c1ccc2c(c1)C(N(C)C)CC2 (stereo not drawn) [Example 12, [6-(2-Methoxy-phenyl)-indan-1-yl]-dimethyl-amine]
–	47.6 ± 1.2	CNC1CCc2ccc(-c3c(F)cccc3F)cc21 (stereo not drawn) [Example 19, [6-(2,6-Difluoro-phenyl)-indan-1-yl]-methyl-amine]
–	55.7 ± 1.2	CNC1CCc2ccc(-c3c(Cl)cccc3OC)cc21 (stereo not drawn) [Example 21, [6-(2-Chloro-6-methoxy-phenyl)-indan-1-yl]-methyl-amine]
77.7 ± 40.9	–	CNC1CCc2ccc(-c3ccccc3OC)cc21 (stereo not drawn) [Example 13, [6-(2-Methoxy-phenyl)-indan-1-yl]-methyl-amine]
–	198 ± 31.9	Cc1cccc(C)c1-c1ccc2c(c1)C(N(C)C)CC2 (stereo not drawn) [Example 14, [6-(2,6-Dimethyl-phenyl)-indan-1-yl]-dimethyl-amine]
